The text below walks through data of patent US11591342B2, “Heterocyclic compound, application thereof and pharmaceutical composition comprising same” (SUZHOU SINOVENT PHARMACEUTICALS CO., LTD., priority 2018, dated 2023).

One data set deals with Autotaxin (ATX) (Homo sapiens (Human), UniProt Q13822). Put plainly: ATX bioactivity assay (Amplex Red / choline oxidase / HRP fluorescence, LPC 16:0 substrate). The class given is biochemical. As to conditions: 30 min room temperature. On the procedure:
Effect Example 1 Bioactivity Assay
Preparation and Treatment
Stock Solution Preparation
A 10 mM DMSO stock solution was formulated for each compound. A 30 mM DMSO stock solution was formulated for positive control HA130.
The DMSO stock solutions were stored at room temperature in a desiccator for a short period of time or at −20° C. for a long period of time.
All compounds were serially 3-fold diluted in DMSO from 10 μM to the 10th concentration.
A 1000× positive control (10 mM, HA130) and a 1000× negative control (100% DMSO) were prepared.
The plates were shaken for 5 min.
Preparation of 1× Reaction Buffer:
5× reaction buffer and cold water were mixed well in a volume ratio of 1:4.
Preparation of 20 U/mL Choline Oxidase Stock Solution:
1 tube of choline oxide in a kit was dissolved in 1× reaction buffer. The aliquots were frozen at −20° C.
Preparation of 200 U/mL Horseradish Peroxidase (HRP) Stock Solution:
1 tube of HRP in a kit was dissolved in 1 mL of 1× reaction buffer. The aliquots were frozen at −20° C.
Preparation of 20 mM Amplex® Red Reagent (for Detection) Stock Solution
Amplex Red reagent and DMSO were equilibrated at room temperature. 1 tube of Amplex Red reagent in a kit was dissolved in 200 μL of DMSO.
a) 2×ATX ([…]), 2×HRP ([…]), 2× choline oxidase (0.2 U/mL) were added to 1× reaction buffer.
b) 20 μL of the reaction mixture was added to the plate (PE, 6007270) (refer to step a).
c) 40 nL of diluent was added to the plate using Echo (refer to “Preparation”).
d) 2×LPC (16:0) (60 mM) and 2× Amplex® Red ([…]) were prepared using 1× reaction buffer.
e) 20 μL of the mixture was added to the plate (refer to step d).
f) The plate was shaken for 30 s and allowed to stand at room temperature for 30 min.
g) The plate was examined using Envision, and the procedure was as follows: Excitation at 530 nm; and Emission at 590 nm.
Formula for Calculating % Inhibition (Percent Inhibition Rate) as Follows:
FLU: Fluorescence (fluorescence reading)
FLUpositive: Average fluorescence value in positive control wells (10 μM HA130) in the plate.
FLUvehicle: Average fluorescence value in negative control wells (0.1% DMSO) in the plate.
Calculation of IC50 and Dose-Response Curve:
IC50 of the compounds was calculated via a non-linear regression line (dose-variable slope) fitted using % inhibition and log of compound concentration. The software used was Graphpad 5.0. Y=Bottom+(Top−Bottom)/(1+10^((Log IC50−X)×Hill Slope))
X: log of inhibitor concentration

The target of the next data set is CYP3A4 (Homo sapiens (Human), UniProt P08684). Put plainly: Time-dependent inhibition of CYP3A4 (TDI assay, human liver microsomes). The class given is in vitro ADME. As to conditions: for CYP3A4 TDI % @ 10 μM: human liver microsomes, Midazolam substrate, 30 min with NADPH vs 0 min; for time-dependent inhibition on CYP3A4 (conclusion): conclusion drawn from Table 3, 10 μM. On the procedure:
Effect Example 3. Time-Dependent Inhibition of CYP3A4
1. Preheating potassium phosphate buffer (K-buffer), pH 7.4: 100 mM potassium phosphate buffer (K-buffer) was prepared by mixing 9.5 mL of solution A with 40.5 mL of solution B, diluting to 500 mL with ultrapure water, and then adjusting to pH 7.4 with KOH or H3PO4, wherein the solution A (1M potassium dihydrogenphosphate) was prepared by dissolving 136.5 g of potassium dihydrogenphosphate in […] of ultrapure water.
2. Preparation of human liver microsome suspension (1.3 mg/mL, 1.3×, stock: 20 mg/mL): 100 μL of human liver microsome suspension (20 mg/mL) was added into […] of K-buffer.
3. Preparation of NADPH solution (4.167 mg/mL, 5 mM): 8.3 mg of NADPH was added into 2 mL of buffer.
4. Preparation of substrate solution (1.5× final): 1.5 μL of 10 mM Midazolam was added to 998.5 μL of K-buffer to yield the substrate mixture.
5. Preparation of 100× test compound, reference and blank control solutions: 3 μL of 10 mM stock solution of test compound was added to 27 μL of ACN; 3 μL of positive control stock solution was added to 27 μL of ACN; and 3 μL of DMSO was added to 27 μL of ACN to serve as blank control.
6. Primary preheating system: An NADPH-free system for 0 min incubation: 78 μL of 1.3× human liver microsome solution (step 2) was mixed with 1 μL of the 100× stock solutions of positive control, test compound, or blank control (step 5); A system containing NADPH for 30 min incubation: 78 μL of 1.3× human liver microsome solution (step 2) was mixed with 1 μL of the 100× stock solutions of positive control, test compound, or blank control (step 5).
7. Secondary preheating system: 150 μL of the substrate solution prepared in step 4 was added into a deep well plate together with the NADPH solution from step 3
8. The samples were preheated for 10 min in a 37° C. water bath.
9. Reaction procedure: (1) reaction for 0 min: 21 μL of K-buffer was added to the primary preheating system and mixed well without incubation; 20 μL of the mixture was immediately transferred into the plate of the secondary preheating system; after mixing, the secondary system was incubated in a 37° C. water bath for 15 min, and 60 μL of the reaction mixture was added into 120 μL of acetonitrile containing internal standard to terminate the reaction; and (2) reaction for 30 min: 21 μL of NADPH was added into the primary preheating system for a 30-min incubation after mixing; 20 μL of the mixture was added into the secondary preheating system prior to mixing; the mixture was incubated in a 37° C. water bath for 15 min, and 60 μL of the reaction mixture was added into 120 μL of acetonitrile containing internal standard to terminate the reaction.
10. After termination, the samples were shaken on a shaker at 600 rpm for 10 min and centrifuged at 5594 g for 15 min prior to LC-MS/MS analysis.
(In general: Microsomes from liver hold many membrane-bound enzymes, among them those of drug oxidation.)

Structures are written as SMILES. Some results are limits rather than exact numbers.

Sequence of CYP3A4 (P08684 whole entry): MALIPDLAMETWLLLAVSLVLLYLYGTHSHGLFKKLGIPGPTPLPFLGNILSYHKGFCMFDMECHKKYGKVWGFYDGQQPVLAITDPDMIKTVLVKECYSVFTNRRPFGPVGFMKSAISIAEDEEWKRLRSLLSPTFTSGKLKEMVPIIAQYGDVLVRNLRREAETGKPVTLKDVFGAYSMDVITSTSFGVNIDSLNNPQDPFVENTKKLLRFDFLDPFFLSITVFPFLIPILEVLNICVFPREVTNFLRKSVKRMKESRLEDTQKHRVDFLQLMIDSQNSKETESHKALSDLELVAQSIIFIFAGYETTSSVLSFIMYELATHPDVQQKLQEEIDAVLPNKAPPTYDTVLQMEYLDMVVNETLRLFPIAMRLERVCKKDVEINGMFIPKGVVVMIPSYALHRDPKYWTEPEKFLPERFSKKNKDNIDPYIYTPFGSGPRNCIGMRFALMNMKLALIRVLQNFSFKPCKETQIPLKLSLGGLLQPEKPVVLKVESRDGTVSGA

What is called IC50 is the concentration needed to halve the response being measured. A lower IC50 goes with greater potency. For `CCc1oc2cnc(N3CCN(CC(=O)N4CC(O)C4)CC3)cc2c1N(C)c1nc(-c2ccc(F)cc2)c(C#N)s1` [Compound S-0046, 2-((2-ethyl-5-(4-(2-(3-hydroxyazetidin-1-yl)-2-oxoethyl)piperazin-1-yl)furo[2,3-c]pyridin-3-yl)(methyl)amino)-4-(4-fluorophenyl)thiazole-5-carbonitrile], the 50% inhibitory concentration (IC50) at Autotaxin (ATX) is more than 10 µM. Further, at CYP3A4, the “CYP3A4 TDI % @ 10 μM” value was found to be 10.38% and the “time-dependent inhibition on CYP3A4 (conclusion)” value (“time-dependent inhibition” for short) is recorded as “no time-dependent inhibition on CYP3A4”.
For the compound `CCc1oc2c(F)cc(N3CCN(CC(=O)N4CC(O)C4)CC3)cc2c1N(C)c1nc(-c2ccc(F)cc2)c(C#N)s1` [Compound S-0024, 2-((2-ethyl-7-fluoro-5-(4-(2-(3-hydroxyazetidin-1-yl)-2-oxoethyl)piperazin-1-yl)benzofuran-3-yl)(methyl)amino)-4-(4-fluorophenyl)thiazole-5-carbonitrile], inhibition against Autotaxin (ATX) was half-maximal at 0.188 µM (IC50). Besides, on CYP3A4, the “CYP3A4 TDI % @ 10 μM” value stood at 4.8% and the “time-dependent inhibition” value is recorded as “no time-dependent inhibition on CYP3A4”.
On Autotaxin (ATX), `CCn1nc2c(C)cc(N3CCN(CC(=O)N4CC(O)C4)CC3)nc2c1N(CC(F)(F)F)c1nc(-c2ccc(F)cc2)c(C#N)s1` [Compound S-0140, 2-((2-ethyl-5-(4-(2-(3-hydroxyazetidin-1-yl)-2-oxoethyl)piperazin-1-yl)-7-methyl-2H-pyrazolo[4,3-b]pyridin-3-yl)(2,2,2-trifluoroethyl)amino)-4-(4-fluorophenyl)thiazole-5-carbonitrile] yielded an IC50 of 0.325 µM.
The compound `CCc1nn2c(C)cc(N3CCN(CC(=O)N4CC(O)C4)CC3)nc2c1N(C)c1nc(-c2ccc(F)c(F)c2)c(C#N)s1` [Compound S-0068, 4-(3,4-difluorophenyl)-2-((2-ethyl-5-(4-(2-(3-hydroxyazetidin-1-yl)-2-oxoethyl)piperazin-1-yl)-7-methylpyrazolo[1,5-a]pyrimidin-3-yl)(methyl)amino) thiazole-5-carbonitrile] came in with an IC50 at Autotaxin (ATX) of 0.107 µM.
Same read-out and setting: the value for `CCc1nn2ccc(N3CCN(CC(=O)N4CC(O)C4)CC3)nc2c1N(CC)c1nc(-c2ccc(F)cc2)c(C#N)s1` [Compound S-0082, 2-(ethyl(2-ethyl-5-(4-(2-(3-hydroxyazetidin-1-yl)-2-oxoethyl)piperazin-1-yl)pyrazolo[1,5-a]pyrimidin-3-yl)amino)-4-(4-fluorophenyl)thiazole-5-carbonitrile] was 0.02 µM; that for `CN(c1nc(-c2ccc(F)cc2)c(C#N)s1)c1c2cc(N3CCN(CC(=O)N4CC(O)C4)CC3)cc(F)c2nn1C1CC1` [Compound S-0126, 2-((2-cyclopropyl-7-fluoro-5-(4-(2-(3-hydroxyazetidin-1-yl)-2-oxoethyl)piperazin-1-yl)-2H-indazol-3-yl)(methyl)amino)-4-(4-fluorophenyl)thiazole-5-carbonitrile] was 0.1 µM; that for `CCc1nn2ccc(N3CCN(CC(=O)N4CC(O)C4)CC3)nc2c1N(C)c1nc(-c2ccc(F)c(F)c2)c(C#N)s1` [Compound S-0121, 4-(3,4-difluorophenyl)-2-((2-ethyl-5-(4-(2-(3-hydroxyazetidin-1-yl)-2-oxoethyl)piperazin-1-yl)pyrazolo[1,5-a]pyrimidin-3-yl)(methyl)amino)thiazole-5-carbonitrile] was 0.061 µM.
`CCc1oc2ncc(N3CCN(CC(=O)N4CC(O)C4)CC3)cc2c1N(C)c1nc(-c2ccc(F)cc2)c(C#N)s1` [Compound S-0045, 2-((2-ethyl-5-(4-(2-(3-hydroxyazetidin-1-yl)-2-oxoethyl)piperazin-1-yl)furo[2,3-b]pyridin-3-yl)(methyl)amino)-4-(4-fluorophenyl)thiazole-5-carbonitrile] showed an IC50 at Autotaxin (ATX) of 0.261 µM. In addition, on CYP3A4, the “CYP3A4 TDI % @ 10 μM” value came out at 2.68% and the “time-dependent inhibition” value is reported as “no time-dependent inhibition on CYP3A4”.
Regarding `CCn1nc2c(F)cc(N3CCN(CC(=O)N4CC(O)C4)CC3)cc2c1N(C)c1ccc(C#N)c(-c2ccc(F)cc2)n1` [Compound S-0030, 6-((2-ethyl-7-fluoro-5-(4-(2-(3-hydroxyazetidin-1-yl)-2-oxoethyl)piperazin-1-yl)-2H-indazol-3-yl)(methyl)amino)-2-(4-fluorophenyl)nicotinonitrile], the concentration for half-maximal inhibition (IC50) against Autotaxin (ATX) was found to be 0.407 µM.
With `CCn1nc2c(F)cc(N3CCN(CC(=O)N4CC(O)C4)CC3)cc2c1N(C)c1nc(-c2ccc(F)c(F)c2)c(C#N)s1` [Compound S-0027, 4-(3,4-difluorophenyl)-2-((2-ethyl-7-fluoro-5-(4-(2-(3-hydroxyazetidin-1-yl)-2-oxoethyl)piperazin-1-yl)-2H-indazol-3-yl)(methyl)amino) thiazole-5-carbonitrile], it took 0.165 µM to reach half-maximal inhibition on Autotaxin (ATX) (IC50). Further, at CYP3A4, the “CYP3A4 TDI % @ 10 μM” value was 42.12% and the “time-dependent inhibition” value is given as “weak time-dependent inhibition on CYP3A4”.
